Laboratory results taken from US11510886B2, “Metformin amino acid compounds and methods of using the same” (Laboratorios Silancs S.A. DE C.V., priority 2016, dated 2022).
“Also recorded” adds a separate entry of the source. Structures can show the parent of a compound that is named as a salt.

What was measured:
in vivo = conditions: female, Sprague Dawley, rat, plasma, po, 250 mg/kg
[1] = test system: AMPK and GLUT4 in NIH-3T3-L1 adipocytes; experiment: AMPK activation and GLUT4 in plasma membrane of L1 adipocytes (Western blot); type: cell-based, Mice; conditions: 10 mM, 3 hours
Description: . 2 days in culture media supplemented with insulin 1 μg/mL; and 6 days in culture media. […]. Similar quantities of each extract were analyzed using Western blot (SDS-PAGE and electrotransfer), with the indicated antibodies and chemiluminescence (ECL Prime, GE Healthcare). FIGS. 70B-C show pictures of L1 adipocyte cultures treated as in FIG. 70A and exposed to fractioning for protein extraction from plasma membrane by a procedure described above (Nishiumi & Ashida. Biosci Biotechnol Biochem. 2007; 71:2343-6). Briefly, cells were washed with PBS and collected in solution A (Tris 50 mM, pH 8.0, DTT 0.5 mM, 0.1% Nonidet P-40, PMSF 1 mM, leupeptin 5 μg/mL, aprotinin 5 μg/mL, NaF 10 mM, Na3VO4 1 mM) and lysed manually with a Dounce homogenizer (20 pestle movements). Homogenized solutions were centrifuged (1000×g, 10 minutes, 4° C.), cell precipitates were dispersed in solution A, without Nonidet P-40, stored in ice for 10 minutes, occasionally stirred, and centrifuged again (1000×g, 10 minutes, 4° C.). […]. Supernatants were stored at −80° C. until analysis. Equivalent quantities of demembrane extracts were analyzed by Western blot with anti-GLUT4 (Abcam) antibodies. […]

RAW264.7 macrophages = experiment: GPBP and pro-IL-1β expression in stimulated RAW264.7 macrophages; type: cell-based
Description: FIG. 87. […] RAW264.7 macrophages cultured in DMEM, supplemented with 10% FBS and antibiotics, were treated with the indicated concentrations of either SLN1, SLN10 for 2 hours, after which LPS (1 μg/mL) was added to cultures. After incubating for 16 hours, the relative expression quantification (RQ) for GPBP was analyzed by RT-qPCR, using HPRT-1 as a normalizer and non-stimulated cells (cells) as a reference point.
FIG. 88. […] RAW264.7 macrophages were treated as shown in FIG. 87 and analyzed by flow cytometry, using for sample processing the Cytofix/Cytoperm (BD) kit, according to the manufacturer's instructions, as well as specific antibodies against GPBP (N27) and pro-IL-1β, conjugated with FITC and phycoerythrin (PE), correspondingly. The intensity of fluorescence (IF) emission median value is shown in arbitrary units (a.u.) for each of the series. Non-treated cells were used as a reference point and their corresponding isotype controls were carried out. The median is usually used in fluorescence quantitative studies to minimize the influence of extreme values that may distort the real mean value. Isotype controls were carried out to eliminate background, caused by nonspecific fluorescence; nonspecific antibodies from the same isotype of those used to detect GPBP and pro-IL-1β were used. […]

[2] = test system: RAW264.7 macrophages and L1 adipocytes co-cultures; experiment: Glucose consumption in macrophage and adipocyte co-cultures; type: cell-based, Mice; conditions: 10 mM, 30 hours (FIG. 80)
GPBP = GPBP Western blot of treated A549 cells; type: cell-based; conditions: 10 mM, 3 hours
Description: After the incubation time, cells were washed twice with PBS and lysed in 25 mM Tris-HCl, pH 7.4, 140 mM NaCl, 3 mM KCl, 20 mM NaF, 1 mM PMSF, 10 μg/mL leupeptin, 1% Triton X-100 for 20 min at 4° C. The lysates were centrifuged at 20,000×g for 10 min at 4° C., supernatants were recovered, and protein concentration determined
Equal amounts of each lysate (40 μg) were analyzed by Western blot, with monoclonal antibodies against GPBP N27 (Fibrostatin SL) and against tubulin (Sigma). Electrophoresis was performed in polyacrylamide gel (6.5%) with SDS, after which electroblotting was carried out to PVDF membrane (Immobilon P, Millipore Merck). After transfer, the membranes were blocked in 5% skim milk in 25 mM Tris-HCl, pH 7.5, 150 mM NaCl, 0.05% Tween-20 (TBST) for 45 min, and then incubated with primary antibodies diluted in blocking solution for 16 hours at 4° C. Thereafter, the membranes were washed with TBST (3×5 minutes) and incubated with secondary antibodies against mouse IgG, conjugated to horseradish peroxidase (HRP) (Sigma) for 1 hours at room temperature while stirring. After further washes with TBST (3×5 minutes), the chemiluminescence disclosure was performed by using the ECL Prime reagent (GE Healthcare) and the image generation system ImageQuant LAS 4000 Mini (GE Healthcare).
The Western blots disclosure images were analyzed with the ImageJ WCIF program.

## CN(C)C(=N)N=C(N)N [Metformin hydrochloride, metformin hydrochloride, reference compound]
In vivo
  AUC(0-t): 82000 ng·h/mL
  Cmax: 16300 ng/mL
  Tmax: 30 min
  concentration at 0.5 h: 16300 ± 5100 ng/mL
  concentration at 1 h: 14800 ± 5070 ng/mL
  concentration at 2 h: 11900 ± 3240 ng/mL
  concentration at 4 h: 6830 ± 1650 ng/mL
  concentration at 8 h: 3140 ± 1050 ng/mL
  concentration at 24 h: 190 ± 100 ng/mL

## metformin lysinate
[1]
  AMPK activation: activates AMPK
  GLUT4 accumulation in the plasma membrane: induces a GLUT4 accumulation in the plasma membrane
RAW264.7 macrophages; FIG. 90
  GPBP secretion induced by LPS and IC: less ability to reduce GPBP secretion
RAW264.7 macrophages; LPS or LPS and IFN-γ, flow cytometry (FIGS. 88, 89)
  induced expression of GPBP: more efficiently inhibited by SLN10
[2]
  glucose consumption of co-cultures: stronger
GPBP; pH 7.5, listed as SLN10
  GPBP polypeptides reactive with N27: more abundant in culture extracts treated with SLN10; also recorded: shifts to positions of less molecular weight
GPBP; pH 9.3
  GPBP polypeptides reactive with N27: shifts to positions of less molecular weight
